Measured values: patent EP4574175A1, “PRODRUG FOR ANTI-AGING RELATED DISEASES AND USE METHOD THEREFOR” (BEIJING SUNCELL BIO-MEDICAL CO., LTD., priority 2022, dated 2024)

Tests used:
platelets = experiment: In vivo platelet toxicity test; set-up: species or system C57 mice
Protocol: (§1) All drugs were mixed in 85% physiological saline, 5% DMSO (Sigma, D8418) and 10% Solutol HS 15 (Sigma, 42966), and administered to mice by intraperitoneal (i.p.) injection. To treat the bleomycin-injured young mice, A13 (2 mg/kg), A13bGa1 (5 mg/kg), or an empty vehicle control was administered three consecutive days per week for four weeks. A1331852 (abbreviated as A13) was purchased from MCE.
A single administration of A13 or A13bG was performed. Female 5-6 week old C57 mice were treated with a single intraperitoneal injection. A13 and A13bG were administered in three different dose groups of 2, 5, and 20 mg/kg. Approximately 50 µl of blood was collected from each mouse at different time points into the EDTA tubes (RAM Scientific) by means of inner canthal blood extraction, and analyzed using a haematology analyzer for a blood routine examination and a platelet counting. Multiple administrations of A13 or A13bG were performed. Female 5-6 week old C57 mice were treated with multiple intraperitoneal injections. A13 and A13bG were administered in three different dose groups of 2, 5 and 20 mg/kg, three consecutive days per week, followed by a 4-day withdrawal for 3 weeks. The time points of administration were in the afternoon of days 0, 1, 2, 7, 8, 9, 14, 15, and 16, and the time points of blood collection and testing were in the morning of days 1, 3, 5, 8, 10, 12, 15, 17, and 19, respectively.
For a blood routine examination, 50 µl of fresh blood was collected from each mouse and immediately mixed with EDTA. Blood samples were analyzed by Celltac Alpha MEK-6400 series haematology analyzer (Nihon Kohden, MEK-6400). Data were expressed as the number of different blood cells or platelets per µl of blood. For the serum biochemical analysis, the blood samples were collected, coagulated for 2 hours at room temperature or overnight at 4°C, and then centrifuged (1000 g, 10 minutes) to obtain serum. A 200 µl of serum was aliquoted and analyzed for alanine aminotransferase (ALT), aspartate aminotransferase (AST), uric acid (UA), and creatinine (CREA) by a chemistry analyzer (Mindray, BS-350E).

[1] = tested on: mouse model of Bleomycin-induced pulmonary fibrosis; experiment: Bleomycin-induced pulmonary fibrosis mouse model; assay type: in vivo, C57 mice; details: A13 2 mg/kg, A13bGa1 5 mg/kg i.p.
Protocol: as §1
Bleomycin was purchased from Selleck. […]. Drug treatment was initiated four days after modelling, and the drug was administered three consecutive days per week for four consecutive weeks, after which the mice were executed for material collection.
All animals (including those found dead, dying, and euthanised) were autopsied, and the lung tissues were preserved. The lungs were separated, the fat and other tissues were removed, the surface fluid was absorbed using a filter paper, and the whole lungs were weighed (those found dead, dying, and euthanised) for calculation of the lung weight index. The right lung and bronchiole were fixed in 10% neutral buffered formalin solution, embedded in paraffin, sectioned, prepared into slices, and stained with HE for a histopathological and morphological observation of the lung. The degree of the lesions such as the inflammatory cell infiltration in the lung tissue were graded according to a 4-grade classification (slight, mild, moderate, severe) using a standard terminology for diagnosis and classification. The left lung tissue was clipped and stored temporarily below -60°C. Lung weight index(%) = lung weight/body weight × 100%. [formula]
Masson trichrome stain kit (Solarbio, G1340) was used to detect fibrosis in the lung tissue. The formalin-fixed, and paraffin-embedded lung sections were dewaxed with xylene, and then rehydrated with 100% alcohol, 95% alcohol and distilled water. The sections were then stained according to the manufacturer's instructions. Afterwards, the sections were rapidly dehydrated with 95% alcohol and 100% alcohol, cleaned with xylene and covered with the coverslips. […]

[2] = tested on: mouse model of oxygen-induced retinopathy; experiment: Oxygen-induced retinopathy mouse model; assay type: in vivo, C57BL6/J mice; details: single intravitreal injection on postnatal day 12, 50 ng and 100 ng, vs vehicle, IB4 staining at P17
From the text: Neonatal C57BL6/J mice were exposed to a 75% hyperoxia chamber (Shanghai Tow-Int Tech Co., Ltd., Ox-100HE) from the 7th to the 12th day after birth, together with the surrogate ICR female mice, and the mice were removed and placed in a normal air environment for feeding after 12 days. Hypoxia-induced abnormal vasoproliferative lesions persisted in the retina of the neonatal mice after they were fed under a hyperoxic condition and then transferred to a normoxic condition. This mouse lesion model mimics the retinal lesion characteristic of some human vision-related diseases, such as proliferative diabetic retinopathy.
Mice on postnatal day 12 were treated with the intravitreal administration of A13bGa1 or vehicle control in each eye of each mouse. […]
The extracted eyeballs of mice were firstly fixed with 4% paraformaldehyde for 1 hour at room temperature. The retina was carefully detached using the micro ophthalmic scissors and the micro forceps, and then placed in the pre-prepared fluorescence-labelled […] IB4 (Vector, FL-1201) staining solution, and stained overnight at 4 degrees Celsius away from light. Retinal sections were made after the completion of staining, and photographed using a confocal fluorescence microscope (Leica, TCS-SP8). Retinal microvascular stained sections were analyzed for the ischaemic areas and the abnormal neovascular areas using ImageJ (NIH, USA).

[3] = Plasma metabolic stability; assay type: in vitro ADME, human; details: Huamn plasma, 10 µM, 120 minutes
Protocol: Termination of the reaction was accomplished by the addition of 3x volume of acetonitrile and centrifugation at 16000 g for 20 minutes. The supernatant was taken for a LC-MS/MS analysis. The chromatographic column: Waters XSelect HSS T3; the flow rate: 500 µL/min; the eluent: A, water (0.1% formic acid); B, acetonitrile (0.1% formic acid); the gradient elution: 0-1.5 min, 5% B, 1.5-9 min, 5%-80% B, 9-12 min, 80%-100% B, 12-14 min, 100% B, 14-14.3 min, 100%-5% B, 14.3-15 min, 5% B.

[4] = tested on: senescent HEF, HELF, BJ, A549, HUVEC and MRC5 cells; experiment: Cell viability test (CCK-8) on induced senescent cell models, A13 vs A13bGa1; details: Figures 3B-3G
Protocol: Briefly, the human embryonic skin tissues and the fetal lung tissues obtained from the aborted tissues with the patient's informed consent were minced with the forcep and incubated in 1 mg/ml collagenase IV at 37°C for 1-2 hours. After the enzyme treatment, the cells were collected by centrifugation and resuspended in HEF medium (Dulbecco's modified Eagle medium (DMEM, Gibco) containing 10% fetal bovine serum (FBS, Ausbian), 1% GlutaMAX (Gibco), 1% non-essential amino acids (NEAA, Gibco) and 1% penicillin/streptomycin (Gibco). Gibco). Cells were plated on the 10 cm tissue culture dishes and grown in 10% FBS DMEM. […] They were passaged and cryopreserved according to Lonza's method. A549 cells, BJ cells and MRC5 cells were purchased from ATCC and cultured in DMEM medium containing 10% fetal bovine serum (FBS, Ausbian), and 1% penicillin/streptomycin (Gibco).
Cell Counting Kit-8 (CCK-8) assay was used to assess the cell viability. The senescent and non-senescent cells or chondrocytes were seeded into the 96-well plates and cultured overnight. The cells were then treated with control (0.05% DMSO) or different concentrations of the drug to be tested. […] Absorbance was measured at the wavelength of 450 nm.

Cc1c(-c2ccc(N3CCc4cccc(C(=O)Nc5nc6ccccc6s5)c4C3)nc2C(=O)OCc2ccc(O[C@@H]3O[C@H](CO)[C@H](O)[C@H](O)[C@H]3O)c([N+](=O)[O-])c2)cnn1CC12CC3CC(CC(C3)C1)C2 [A13bGa1]
toxic effects on the platelets (platelets; multiple rounds i.p., 3 consecutive days per week for 3 weeks, 2, 5 and 20 mg/kg): significantly reduced
platelet-destroying effect (platelets; single intraperitoneal administration, 20 mg/kg): strong platelet-destroying effect only at the higher dose of 20 mg/kg
toxicity to the platelets (platelets; single intraperitoneal administration, 2, 5 and 20 mg/kg): significantly less toxic to the platelets than the parent compound A13
pathological manifestations of the pulmonary fibrosis (Masson staining) [1]: improved
lung index ([1]; 3 consecutive days per week for 4 weeks): recovered to the normal level
inflammation and consolidation of the mouse lungs (pathological sections) ([1]; HE staining): significant improvement
area of the abnormal neovascular area [2]: significantly reduced
area of the ischemic lesion area of the retina center [2]: significantly reduced
The peak area after normalisation at minute 120, Initial drug A13bGa1 [3]: 99.93%
The peak area after normalisation at minute 120, peak 1 oxidative dehydrogenation ([3]; metabolite peak): 0.07%
overall killing activity on the senescent cells compared with parent compound [4]: somewhat reduced compared with that of the parent compound A13
killing of the senescent cells ([4]; skin-derived fibroblasts, lung-derived cells, vascular endothelial-derived cells): highly efficient and selective in killing the senescent cells
